In patent publication US20050112573A1, “Method of detecting toxic substance” (priority 2001, published 2005):

System: yeast genes (level of expressed mRNA)
Experiment: DNA chip analysis of expressed mRNA of yeast genes after 2 h culture with a toxic chemical substance
Assay type: cell-based, Saccharomyces cerevisiae S288C
Description: Yeast (Saccharomyces cerevtisiae S288C (α SUC2mal mel gap2 CUP1)) were cultured at 25° C. on YPD medium (yeast extract 1%, polypepton 2%, glucose 2%). One of toxic chemical substances was added to the cell at logarithmic growth phase, and the cell was further cultured for two hours. Cell was cultured without any chemical substance in the same condition, and was used as control. Concentrations of the chemical substances were defined to inhibit the growth of the yeast but not lead to death.
After the completion of cultivation, the culture was centrifuged to collect the cells. To the cells, sodium acetate buffer (50 mM sodium acetate, 10 mM EDTA, 1% SDS) was added, and the mixture was shaken at 65° C. for five minutes, followed by returning to room temperature, and obtaining the supernatant, which procedure was repeated two times. To the supernatant, ½ amount of a solution of phenol/chloroform was added, and the mixture was centrifuged to give a supernatant, which was added with an equal amount of chloroform, and the mixture was centrifuged to give a supernatant. To the supernatant, an equal amount of isopropanol containing 0.3 M sodium acetate was added, and the mixture was allowed to stand at room temperature for 30 minutes, after which the mixture was centrifuged to give a sediment of the whole RNAs. Seventy % ethanol was added to the sediment, and the mixture was again centrifuged to give a sediment, which was then dried and dissolved in water. mRNA was isolated from the whole RNAs as followings. In view of the fact that a poly A chain is attached to the 3′ terminus of mRNA, a polynucleotide having a poly T structure which was immobilized on the surface of latex beads was used to trap the mRNA, and then the mRNA was washed and eluted with spine column (Oligotex-dT30<Super>mRNA Purification Kit, Takara). Reverse transcription of the mRNA was conducted with a reverse transcriptase (Super Script II Reverse Transcriptase; catalogue No. 18064-014, GibcoBRL) using fluorescence-labeled nucleotides to give cDNAs that were introduced with Cy3-dUTP or Cy5-dUTP during the reverse transcription.
The labeled cDNAs were dissolved in TE buffer (10 mM Tris-HCl/1 mM EDTA, pH8.0), and the solution was dropped on the DNA chip containing the whole genes of yeast (DNA Chip Research Inc. Japan) so that the cDNAs were hybridized on the DNA chip at 65° C. for over 12 hours. The fluoresces intensity of the DNA chip was read with a scanner, and the ratio relative to the fluorescence intensity resulting from the absence of chemical substance was estimated as the following, which is shown in Tables 1 to 9: [formula]
In the Tables, “Intensity” indicated in the rightmost column is a value of the level of expressed mRNA of each gene in control cells as divided by the average level of the expressions of the whole genes.

## CCCCC[C@H](O)CC(=O)CCc1ccc(O)c(OC)c1 [(13), gingerol]
Gene YML029W
  The level of expressed mRNA in the presence of chemical substance/absence: YML029W: 2.0
Gene YML041C
  The level of expressed mRNA in the presence of chemical substance/absence: YML041C: 1.2
Gene YML079W
  The level of expressed mRNA in the presence of chemical substance/absence: YML079W: 1.6
Gene YML110C
  level of expressed mRNA in the presence of chemical substance/in its absence: 1.8
Gene YML118W
  The level of expressed mRNA in the presence of chemical substance/absence: YML118W: 1.7
Gene YMR068W
  The level of expressed mRNA in the presence of chemical substance/absence: YMR068W: 1.4
Gene YMR071C
  The level of expressed mRNA in the presence of chemical substance/absence: YMR071C: 1.3
Gene YMR105C
  level of expressed mRNA in the presence of chemical substance/in its absence: 3.3
Gene YMR114C
  The level of expressed mRNA in the presence of chemical substance/absence: YMR114C: 1.1
Gene YMR115W
  The level of expressed mRNA in the presence of chemical substance/absence: YMR115W: 1.3
Gene YMR160W
  The level of expressed mRNA in the presence of chemical substance/absence: YMR160W: 1.6
Gene YMR189W
  level of expressed mRNA in the presence of chemical substance/in its absence: 0.9
Gene YMR258C
  The level of expressed mRNA in the presence of chemical substance/absence: YMR258C: 1.6
Gene YMR271C
  level of expressed mRNA in the presence of chemical substance/in its absence: 3.6
Gene YMR272C
  level of expressed mRNA in the presence of chemical substance/in its absence: 1.2
Gene YMR296C
  level of expressed mRNA in the presence of chemical substance/in its absence: 0.9
Gene YNL012W
  level of expressed mRNA in the presence of chemical substance/in its absence: 2.9
Gene YNL026W
  The level of expressed mRNA in the presence of chemical substance/absence: YNL026W: 1.7
Gene YNL037C
  level of expressed mRNA in the presence of chemical substance/in its absence: 1.9
Gene YNL045W
  level of expressed mRNA in the presence of chemical substance/in its absence: 2.6
Gene YNL058C
  The level of expressed mRNA in the presence of chemical substance/absence: YNL058C: 0.6
Gene YNL063W
  The level of expressed mRNA in the presence of chemical substance/absence: YNL063W: 1.5
Gene YNL104C
  level of expressed mRNA in the presence of chemical substance/in its absence: 2.1
Gene YNL106C
  level of expressed mRNA in the presence of chemical substance/in its absence: 0.9
Gene YNL130C
  level of expressed mRNA in the presence of chemical substance/in its absence: 1.9
Gene YNL169C
  level of expressed mRNA in the presence of chemical substance/in its absence: 1.7
Gene YNL176C
  The level of expressed mRNA in the presence of chemical substance/absence: YNL176C: 0.6
Gene YNL181W
  The level of expressed mRNA in the presence of chemical substance/absence: YNL181W: 1.8
Gene YNL191W
  The level of expressed mRNA in the presence of chemical substance/absence: YNL191W: 0.6
Gene YNL194C
  The level of expressed mRNA in the presence of chemical substance/absence: YNL194C: 1.5
Gene YNL200C
  The level of expressed mRNA in the presence of chemical substance/absence: YNL200C: 1.1
Gene YNL212W
  The level of expressed mRNA in the presence of chemical substance/absence: YNL212W: 1.3
Gene YNL231C
  level of expressed mRNA in the presence of chemical substance/in its absence: 2.9
Gene YNL253W
  The level of expressed mRNA in the presence of chemical substance/absence: YNL253W: 1.1
Gene YNL265C
  The level of expressed mRNA in the presence of chemical substance/absence: YNL265C: 2.0
Gene YNL276C
  The level of expressed mRNA in the presence of chemical substance/absence: YNL276C: 1.5
Gene YNL322C
  level of expressed mRNA in the presence of chemical substance/in its absence: 0.8
Gene YNR002C
  level of expressed mRNA in the presence of chemical substance/in its absence: 2.1
Gene YNR019W
  level of expressed mRNA in the presence of chemical substance/in its absence: 2.1
Gene YNR033W
  level of expressed mRNA in the presence of chemical substance/in its absence: 3.8
Gene YNR051C
  The level of expressed mRNA in the presence of chemical substance/absence: YNR051C: 2.1
Gene YNR059W
  level of expressed mRNA in the presence of chemical substance/in its absence: 2.4
Gene YOL026C
  The level of expressed mRNA in the presence of chemical substance/absence: YOL026C: 1.2
Gene YOL030W
  The level of expressed mRNA in the presence of chemical substance/absence: YOL030W: 1.7
Gene YOL058W
  level of expressed mRNA in the presence of chemical substance/in its absence: 1.2
Gene YOL126C
  level of expressed mRNA in the presence of chemical substance/in its absence: 2.6
Gene YOL143C
  level of expressed mRNA in the presence of chemical substance/in its absence: 1.2
Gene YOL153C
  level of expressed mRNA in the presence of chemical substance/in its absence: 2.9
Gene YOL157C
  level of expressed mRNA in the presence of chemical substance/in its absence: 1.4
Gene YOR022C
  The level of expressed mRNA in the presence of chemical substance/absence: YOR022C: 1.7
Gene YOR087W
  The level of expressed mRNA in the presence of chemical substance/absence: YOR087W: 1.2
Gene YOR088W
  The level of expressed mRNA in the presence of chemical substance/absence: YOR088W: 0.4
Gene YOR099W
  level of expressed mRNA in the presence of chemical substance/in its absence: 1.6
Gene YOR130C
  level of expressed mRNA in the presence of chemical substance/in its absence: 2.1
Gene YOR136W
  level of expressed mRNA in the presence of chemical substance/in its absence: 1.5
Gene YOR138C
  The level of expressed mRNA in the presence of chemical substance/absence: YOR138C: 1.8
Gene YOR253W
  The level of expressed mRNA in the presence of chemical substance/absence: YOR253W: 0.5
